Experimental data: US12692223B2, “Phenyl-sulfamoyl-benzoic acid derivatives as ERAP1-modulators” (GREY WOLF THERAPEUTICS LIMITED, priority 2021, dated 2026)

molecular target: T1, ERAP1 (Homo sapiens, UniProt Q9NZ08); test: ERAP1 mediated hydrolysis of an amide substrate measured in a biochemical system (10-mer inhibition assay); settings: purified ERAP1(37-941)-10His; 10-mer substrate; 23° C. for 1 h; excitation 279 nm, emission 355 nm; read-out: IC50 vs Decapeptide WRVYEKC(Dnp)ALK-acid (where Dnp is Dinitrophenyl maleimide) (10-mer)
T1 construct: Purified ERAP1(37-941)-10His (ERAP1)
Description: Biological Assay 1: ERAP1 Mediated Hydrolysis of an Amide Substrate Measured in a Biochemical System
• 1× Assay buffer (AB): 25 mM Bis-tris propane, 0.05% w/v • Hydroxypropylmethylcellulose pH 7.75 made with Optima grade water • Decapeptide WRVYEKC(Dnp)ALK-acid (where Dnp is Dinitrophenyl maleimide) (10-mer) • L-Leucine 7-amido-4-methylcoumarin (L-AMC) • Purified ERAP1(37-941)-10His (ERAP1) Assay Procedure:
12.5 μL ERAP1 enzyme in 1×AB was combined with 250 nL test compound in DMSO. 12.5 μL of either 240 μM L-AMC in 1×AB or 100 μM 10-mer in 1×AB was added to the reaction and incubated at 23° C. for 1 h. For detection, plates were read at excitation 365 nm and emission 442 nm (L-AMC) or excitation 279 nm and emission 355 nm (10-mer). Compound IC50 was determined using a 4-parameter equation.

T1 sequence (Q9NZ08 37-941): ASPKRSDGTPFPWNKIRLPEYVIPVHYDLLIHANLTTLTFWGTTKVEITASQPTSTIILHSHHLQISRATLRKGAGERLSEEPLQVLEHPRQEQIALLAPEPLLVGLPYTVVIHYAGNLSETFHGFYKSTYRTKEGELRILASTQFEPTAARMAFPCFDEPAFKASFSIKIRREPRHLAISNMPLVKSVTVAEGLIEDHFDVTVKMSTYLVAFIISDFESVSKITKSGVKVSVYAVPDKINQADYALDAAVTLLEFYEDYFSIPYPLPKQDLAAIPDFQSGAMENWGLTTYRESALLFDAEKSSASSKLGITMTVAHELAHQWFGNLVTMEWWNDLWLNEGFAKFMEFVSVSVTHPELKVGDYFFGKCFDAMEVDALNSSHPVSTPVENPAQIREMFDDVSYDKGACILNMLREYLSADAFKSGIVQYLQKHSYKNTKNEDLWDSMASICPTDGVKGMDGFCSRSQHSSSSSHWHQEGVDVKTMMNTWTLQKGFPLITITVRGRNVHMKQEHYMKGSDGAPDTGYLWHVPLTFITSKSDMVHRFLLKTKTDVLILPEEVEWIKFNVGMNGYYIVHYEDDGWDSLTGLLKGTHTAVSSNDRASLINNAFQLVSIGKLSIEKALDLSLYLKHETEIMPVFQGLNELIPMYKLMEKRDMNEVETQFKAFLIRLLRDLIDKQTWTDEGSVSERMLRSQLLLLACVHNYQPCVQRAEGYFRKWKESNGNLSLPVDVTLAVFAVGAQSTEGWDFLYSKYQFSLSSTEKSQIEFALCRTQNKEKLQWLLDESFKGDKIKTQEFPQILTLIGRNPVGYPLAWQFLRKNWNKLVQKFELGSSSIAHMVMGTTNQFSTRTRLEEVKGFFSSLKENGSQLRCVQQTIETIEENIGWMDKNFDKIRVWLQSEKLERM

First: N#Cc1cc(NS(=O)(=O)c2cc(C(=O)O)ccc2C2CC2)c(OC2CCC2C2CC2)cc1Cl (single isomer, unassigned) [Example 130, 3-(N-(4-chloro-5-cyano-2-(2-cyclopropylcyclobutoxy)phenyl)sulfamoyl)-4-cyclopropylbenzoic acid]
Second: N#Cc1cc(NS(=O)(=O)c2cc(C(=O)O)ccc2C2CC2)c(OC2CCC2O)cc1Cl (single isomer, unassigned) [Example 135, 3-(N-(4-chloro-5-cyano-2-(cis-2-hydroxycyclobutoxy)phenyl)sulfamoyl)-4-cyclopropylbenzoic acid]
The IC50 of the first is lower: 1 to 5 nM for the first, over 5 nM for the second. The first is the more potent here.

`N#Cc1cc(NS(=O)(=O)c2cc(C(=O)O)ccc2C2CC2)c(OC2CCC2C2CC2)cc1Cl` (single isomer, unassigned) [Example 131, 3-(N-(4-chloro-5-cyano-2-(2-cyclopropylcyclobutoxy)phenyl)sulfamoyl)-4-cyclopropylbenzoic acid] and `N#Cc1cc(NS(=O)(=O)c2cc(C(=O)O)ccc2C2CC2)c(OC2CCC2O)cc1Cl` (single isomer, unassigned) [Example 136, 3-(N-(4-chloro-5-cyano-2-(csi-2-hydroxycyclobutoxy)phenyl)sulfamoyl)-4-cyclopropylbenzoic acid] cannot be ordered by IC50: under 1 nM for the first, under 1 nM for the second.

First: N#Cc1cc(NS(=O)(=O)c2cc(C(=O)O)ccc2C2CC2)c(OC2CCC2C2CC2)cc1Cl (single isomer, unassigned) [Example 132, 3-(N-(4-chloro-5-cyano-2-(2-cyclopropylcyclobutoxy)phenyl)sulfamoyl)-4-cyclopropylbenzoic acid]
Second: COC1CCC1Oc1cc(Cl)c(C#N)cc1NS(=O)(=O)c1cc(C(=O)O)ccc1C1CC1 (single isomer, unassigned) [Example 138, 3-(N-(4-chloro-5-cyano-2-(trans-2-methoxycyclobutoxy)phenyl)sulfamoyl)-4-cyclopropylbenzoic acid]
The IC50 of the first is higher: 1 to 5 nM for the first, under 1 nM for the second.

Compared with `N#Cc1cc(NS(=O)(=O)c2cc(C(=O)O)ccc2C2CC2)c(OC2CCC2C2CC2)cc1Cl` (single isomer, unassigned) [Example 133, 3-(N-(4-chloro-5-cyano-2-(2-cyclopropylcyclobutoxy)phenyl)sulfamoyl)-4-cyclopropylbenzoic acid], `COC1CCC1Oc1cc(Cl)c(C#N)cc1NS(=O)(=O)c1cc(C(=O)O)ccc1C1CC1` (single isomer, unassigned) [Example 139, 3-(N-(4-chloro-5-cyano-2-(trans-2-methoxycyclobutoxy)phenyl)sulfamoyl)-4-cyclopropylbenzoic acid] is higher in IC50: 1 to 5 nM for the first, over 5 nM for the second. The first is the more potent here.

First: N#Cc1cc(NS(=O)(=O)c2cc(C(=O)O)ccc2C2CC2)c(OC2CCC(F)(F)C2)cc1Cl (single isomer, unassigned) [Example 140, 3-(N-(4-chloro-5-cyano-2-((3,3-difluorocyclopentyl)oxy)phenyl)sulfa-moyl)-4-cyclopropylbenzoic acid]
Second: N#Cc1cc(NS(=O)(=O)c2cc(C(=O)O)ccc2C2CC2)c(OC2CC(F)(F)C2)cc1Cl [Example 13, 3-(N-(4-chloro-5-cyano-2-(3,3-difluorocyclobutoxy)phenyl)sulfamoyl)-4-cyclopropylbenzoic acid]
The IC50 of the first is lower: under 1 nM for the first, 1 to 5 nM for the second. The first is the more potent here.

`N#Cc1cc(NS(=O)(=O)c2cc(C(=O)O)ccc2C2CC2)c(OC2CCC(F)(F)C2)cc1Cl` (single isomer, unassigned) [Example 141, 3-(N-(4-chloro-5-cyano-2-((3,3-difluorocyclopentyl)oxy)phenyl)sulfa-moyl)-4-cyclopropylbenzoic acid] and `N#Cc1cc(NS(=O)(=O)c2cc(C(=O)O)ccc2C2CC2)c(OC2CCC2)cc1Cl` [Example 12, 3-(N-(4-chloro-5-cyano-2-cyclobutoxyphenyl)sulfamoyl)-4-cyclopropylbenzoic acid] cannot be ordered by IC50: under 1 nM for the first, under 1 nM for the second.

`CO[C@@H]1CCC[C@@H]1Oc1cc(Cl)c(C#N)cc1NS(=O)(=O)c1cc(C(=O)O)ccc1C1CC1` (single isomer, unassigned) [Example 142, 3-(N-(4-chloro-5-cyano-2-((cis-2-methoxycyclopentyl)oxy)phenyl)sulfa-moyl)-4-cyclopropylbenzoic acid] and `COC1CCC1Oc1cc(Cl)c(C#N)cc1NS(=O)(=O)c1cc(C(=O)O)ccc1C1CC1` (single isomer, unassigned) [Example 144, 3-(N-(4-chloro-5-cyano-2-(cis-2-methoxycyclobutoxy)phenyl)sulfamoyl)-4-cyclopropylbenzoic acid] cannot be ordered by IC50: under 1 nM for the first, under 1 nM for the second.

`CO[C@@H]1CCC[C@@H]1Oc1cc(Cl)c(C#N)cc1NS(=O)(=O)c1cc(C(=O)O)ccc1C1CC1` (single isomer, unassigned) [Example 143, 3-(N-(4-chloro-5-cyano-2-((cis-2-methoxycyclopentyl)oxy)phenyl)sulfa-moyl)-4-cyclopropylbenzoic acid] and `COC1CCC1Oc1cc(Cl)c(C#N)cc1NS(=O)(=O)c1cc(C(=O)O)ccc1C1CC1` (single isomer, unassigned) [Example 145, 3-(N-(4-chloro-5-cyano-2-(cis-2-methoxycyclobutoxy)phenyl)sulfamoyl)-4-cyclopropylbenzoic acid] fall in the same range of IC50: 1 to 5 nM for the first, 1 to 5 nM for the second.

`N#Cc1cc(NS(=O)(=O)c2cc(C(=O)O)ccc2C2CC2)c(OC2CCCC2)cc1Cl` [Example 1, 3-(N-(4-chloro-5-cyano-2-(cyclopentyloxy)phenyl)sulfamoyl)-4-cyclopropylbenzoic acid] and `N#Cc1cc(NS(=O)(=O)c2cc(C(=O)O)ccc2C2CC2)c(OC2CCCC2)cc1F` [Example 11, 3-(N-(5-cyano-2-(cyclopentyloxy)-4-fluorophenyl)sulfamoyl)-4-cyclopropylbenzoic acid] cannot be ordered by IC50: under 1 nM for the first, under 1 nM for the second.

`COc1ccc(C(=O)O)cc1S(=O)(=O)Nc1cc(C(F)(F)F)ccc1OC1CCCC1` [Example 2, 3-(N-(2-(cyclopentyloxy)^−5-(trifluoromethyl)phenyl)sulfamoyl)-4-methoxybenzoic acid] and `COc1ccc(C(=O)O)cc1S(=O)(=O)Nc1cc(C(F)(F)F)ccc1OC1CCCCC1` [Example 3, 3-(N-(2-(cyclohexyloxy)^−5-(trifluoromethyl)phenyl)sulfamoyl)-4-methoxybenzoic acid] cannot be ordered by IC50: over 5 nM for the first, over 5 nM for the second.

First: O=C(O)c1ccc(C2CC2)c(S(=O)(=O)Nc2cc(C(F)(F)F)ccc2OC2CCCC2)c1 [Example 4, 3-(N-(2-(cyclopentyloxy)^−5-(trifluoromethyl)phenyl)sulfamoyl)-4-cyclopropylbenzoic acid]
Second: CCc1ccc(C(=O)O)cc1S(=O)(=O)Nc1cc(C(F)(F)F)ccc1OC1CCCC1 [Example 5, 3-(N-(2-(cyclopentyloxy)−5-(trifluoromethyl)phenyl)sulfamoyl)-4-ethylbenzoic acid]
The IC50 of the first is lower: 1 to 5 nM for the first, over 5 nM for the second. The first is the more potent here.

First: N#Cc1ccc(OC2CCCC2)c(NS(=O)(=O)c2cc(C(=O)O)ccc2C2CC2)c1 [Example 6, 3-(N-(5-cyano-2-(cyclopentyloxy)phenyl)sulfamoyl)-4-cyclopropylbenzoic acid]
Second: N#Cc1cc(F)c(OC2CCCC2)c(NS(=O)(=O)c2cc(C(=O)O)ccc2C2CC2)c1 [Example 14, 3-(N-(5-cyano-2-(cyclopentyloxy)−3-fluorophenyl)sulfamoyl)-4-cyclopropylbenzoic acid]
The IC50 of the first is lower: 1 to 5 nM for the first, over 5 nM for the second.

Compared with `CCc1ccc(C(=O)O)cc1S(=O)(=O)Nc1cc(C(F)(F)F)ccc1OC1CCC1` [Example 7, 3-(N-(2-cyclobutoxy-5-(trifluoromethyl)phenyl)sulfamoyl)-4-ethylbenzoic acid], `O=C(O)c1ccc(C2CC2)c(S(=O)(=O)Nc2cc(-n3cnnn3)ccc2OC2CCCC2)c1` [Example 8, 3-(N-(2-(cyclopentyloxy)-5-(1H-tetrazol-1-yl)phenyl)sulfamoyl)-4-cyclopropylbenzoic acid] is lower in IC50: over 5 nM for the first, under 1 nM for the second.

`O=C(O)c1ccc(C2CC2)c(S(=O)(=O)Nc2cc(-n3cnnn3)c(F)cc2OC2CCCC2)c1` [Example 9, 3-(N-(2-(cyclopentyloxy)-4-fluoro-5-(1H-tetrazol-1-yl)phenyl)sulfamoyl)-4-cyclopropylbenzoic acid] and `O=C(O)c1ccc(C2CC2)c(S(=O)(=O)Nc2cc(-n3cnnn3)c(Cl)cc2OC2CCCC2)c1` [Example 10, 3-(N-(4-chloro-2-(cyclopentyloxy)−5-(1H-tetrazol-1-yl)phenyl)sulfamoyl)-4-cyclopropylbenzoic acid] cannot be ordered by IC50: under 1 nM for the first, under 1 nM for the second.

First: Cc1cc(C#N)cc(NS(=O)(=O)c2cc(C(=O)O)ccc2C2CC2)c1OC1CCCC1 [Example 15, 3-(N-(5-cyano-2-(cyclopentyloxy)−3-methylphenyl)sulfamoyl)-4-cyclopropylbenzoic acid]
Second: N#Cc1cc(NS(=O)(=O)c2cc(C(=O)O)c(F)cc2C2CC2)c(OC2CCCC2)cc1Cl [Example 16, 5-(N-(4-chloro-5-cyano-2-(cyclopentyloxy)phenyl)sulfamoyl)-4-cyclopropyl-2-fluorobenzoic acid]
The IC50 of the first is higher: over 5 nM for the first, under 1 nM for the second.

`N#Cc1cc(NS(=O)(=O)c2cc(C(=O)O)c(F)cc2C2CC2)c(OC2CC(F)(F)C2)cc1Cl` [Example 17, 5-(N-(4-chloro-5-cyano-2-(3,3-difluorocyclobutoxy)phenyl)sulfamoyl)-4-cyclopropyl-2-fluorobenzoic acid] and `N#Cc1cc(NS(=O)(=O)c2cc(C(=O)O)cc(F)c2C2CC2)c(OC2CCCC2)cc1Cl` [Example 18, 3-(N-(4-chloro-5-cyano-2-(cyclopentyloxy)phenyl)sulfamoyl)-4-cyclopropyl-5-fluorobenzoic acid] cannot be ordered by IC50: under 1 nM for the first, under 1 nM for the second.
